# Data from patent US7985751B2, “Piperazine derivatives” (M's Science Corporation, priority 2005, dated 2011).
# Structures can show the parent of a compound that is named as a salt.
# Assays:
# σ2 receptors = target: T1, σ2 receptors (Homo sapiens, UniProt Q5BJF2); test: σ2 receptor binding assay ([3H]DTG displacement with σ1 masked by pentazocine, HEK-293 cell membranes); details: σ1 versus σ2 binding, result in words
# T1 construct: incubating 50 μg of HEK-293 cell membranes with 10 nM [^3H]-DTG; endogenous in cells; host or cells: HEK-293
# T1 sequence (Q5BJF2 whole entry): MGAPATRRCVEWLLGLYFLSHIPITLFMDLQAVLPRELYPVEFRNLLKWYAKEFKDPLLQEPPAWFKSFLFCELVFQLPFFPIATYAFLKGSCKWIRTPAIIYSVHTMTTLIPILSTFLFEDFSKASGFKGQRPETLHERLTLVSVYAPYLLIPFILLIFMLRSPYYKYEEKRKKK
# Experimental: (§1) Sigma 1 (σ1) and sigma 2 (σ2) receptor binding assays are carried out in membranes from HEK-293 (Human Embryonic Kidney) cells.
# (§2) Confluent HEK-293 cells are harvested in PBS/5 mM EDTA. They are centrifuged at 2000 rpm for 5 min and then washed two times in PBS. Cells are homogenized in 20 mM Tris-HCL (pH=7.5) containing 5 mM EDTA, 0.5 mM PMSF and 0.5 μg/ml leupeptin using a Dounce homogenizer and sonicated for 5 minutes.
# Nuclear debris and intact cells are removed by centrifugation at 3000 rpm for 10 minutes at 4° C. […]
# Proteins are determined using the Bio Rad Protein Assay Dye Reagent and the membranes are aliquoted and frozen at −80° C. […]
# Total binding is determined by incubating 50 μg of HEK-293 cell membranes with 10 nM [^3H]-DTG (Perkin-Elmer, 58 Ci/mmol) in the presence of 10 μM pentazocine and assay buffer (50 mM Tris-HCl, pH=8.3) in a total volume of 200 μl. Non specific binding is determined in the presence of 10 μM unlabeled DTG. […] The filters are washed three times and the membrane-bound radioactivity is determined in a Microbeta scintillation counter. […]
# (§3) Specific binding is determined by subtraction of non specific binding from total binding. […]
# σ1 receptors = target: T2, σ1 receptors (Homo sapiens, UniProt Q99720); test: σ1 receptor binding assay ((+)-[3H]pentazocine displacement, HEK-293 cell membranes); details: for affinity for sigma receptors, in particular sigma-1 receptors: result in words
# T2 construct: incubating 50 μg of HEK-293 cell membranes with 10 nM (+)-[^3H]-pentazocine; endogenous in cells; host or cells: HEK-293
# T2 sequence (Q99720 whole entry): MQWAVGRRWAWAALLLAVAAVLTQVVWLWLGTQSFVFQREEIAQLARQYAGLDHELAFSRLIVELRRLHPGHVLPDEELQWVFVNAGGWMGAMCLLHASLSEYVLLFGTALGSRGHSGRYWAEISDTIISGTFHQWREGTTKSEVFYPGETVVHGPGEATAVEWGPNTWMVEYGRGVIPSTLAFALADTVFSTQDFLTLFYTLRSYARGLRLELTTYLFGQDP
# Experimental: as §1, §2
# Nuclear debris and intact cells are removed by centrifugation at 3000 rpm for 10 minutes at 4° C. The supernatant is centrifuged at 12000 rpm for 30 minutes and the resulting pellet is resuspended in 25 mM Tris-HCL (pH=7.5), 25 mM Mg2Cl, 10% sucrose containing 0.5 mM PMSF, 2 mM AEBSF, 1 mM EDTA, 130 μM bestatin, 14 μM E-64, 1 μM leupeptin, and 0.3 mM aprotinin.
# Proteins are determined using the Bio Rad Protein Assay Dye Reagent and the membranes are aliquoted and frozen at −80° C.
# The binding assays are performed in 96-well plates.
# σ1 receptors are labeled using the σ1 selective probe (+)-[^3H] Pentazocine (Bowen W D et al, Mol Neuropharmacol 3, 117-126, 1993).
# Total binding is determined by incubating 50 μg of HEK-293 cell membranes with 10 nM (+)-[^3H]-pentazocine (Perkin-Elmer, 35 Ci/mmol) and assay buffer (50 mM Tris-HCl, pH=8.3) in a total volume of 200 μl. Non specific binding is determined in the presence of 10 μM unlabeled pentazocine. For competition experiments, 50 μl of displacing compound is added at 8 different concentrations. Incubations are carried out for 120 min at 37° C. Assays are terminated by dilution with ice-cold 10 mM Tris-HCl, pH=8.3 and vacuum filtration through glass fibers using a Skatron cell harvester from Molecular Devices. The filters are washed three times and the membrane-bound radioactivity is determined in a Microbeta scintillation counter.
# Filters are soaked in 0.5% polyethyleneimine for 1 hour before use.
# as §3
# [1] = system: sigma receptor-mediated neck dystonia in rats; details: microinjection, Nakazawa M et al 1999; cited from earlier work
SMILES,selectivity for σ1 receptor over σ2 receptor (σ2 receptors),IC50 (σ1 receptors) [nM],"affinity for sigma receptors, in particular sigma-1 receptors (σ1 receptors)",induction of neck dystonia [1]
"COc1cc(CCN2CCN(CCCc3ccccc3)CC2)cc(OC)c1OC.Cl [1-[2-(3,4,5-trimethoxyphenyl)ethyl]-4-(3-phenylpropyl)piperazine hydrochloride]",highly selective,< 300,high affinity,–
"Cc1ccccc1NC(=N)Nc1ccccc1C [DTG, 1,3-di-2-tolyl-guanidine]",–,–,–,induced neck dystonia
"Fc1ccccc1CCN1CCN(CCCc2ccccc2)CC1 [Example 4, 1-[2-(2-Fluorophenyl)ethyl]-4-(3-phenylpropyl)piperazine dihydrochloride]",especially good,–,especially good,–
"COc1ccc(CCN2CCN(CCCc3ccccc3)CC2)cc1OC [SA-4503, 1-[2-(3,4-dimethoxyphenyl)ethyl]-4-(3-phenylpropyl)piperazine]",–,–,–,no effect
